The numbers were not newly measured in patent US6376468B1, “Protein:prenyl transferase inhibitors” (Nederlandse Organisatie Voor …, priority 1999, dated 2002), which cites them from elsewhere.

pIC50: −log10 of the molar value.

The series concerns the target T1, Ras farnesyl transferase from human colon carcinoma (Homo sapiens, UniProt P49354+P49356).
T1 construct: host or cells: human colon carcinoma
The following applies: J. Biol. Chem. 268 (1993), 20695-98.

Broadly, the pIC50 is −log10 of the IC50, conventionally taken in molar units. Regarding `CSCCC(NC(=O)c1cccc(CNC(=O)C(N)CS)c1)C(=O)O` (stereo not shown) [Cys-NH-CH2-mC6H4-CO-Met], the negative logarithm of the IC50 (pIC50) is 7.22.
